One assay deals with C. albicans. As to the kind of experiment: C. elegans survival assay after infection with C. albicans. The settings on record: 1 nM peptide; for Median survival: C. albicans infected C. elegans, 25°C, experiment with 12aa (i+7 staple). It counts as in vivo, Candida albicans. The method, then: C. elegans infection assays were performed with strain glp-4(bn2);sek-1(km-4) ([40]), which were propagated and maintained on E. coli strain OP50 grown as lawns on nematode growth medium (NGM) agar using standard techniques ([58]). To synchronize the nematodes to the same stage of growth, L1 stage worms on non-starved plates were washed off, filtered through a 10- µm filter (pluriSelect, pluriStrainer 10 µm), harvested by centrifugation at 1,500 rpm for 60 seconds, transferred to OP50-seeded plates, and grown to the L4 stage.
To prepare the infection plates, fungal strains were grown in BHI broth overnight at 30°C with agitation. About 500 µL of the culture was plated onto BHI solid medium containing gentamycin (10 µg/mL) and grown for 24 hrs at 37°C. The synchronized L4 C. elegans nematodes were then washed off the OP50 plates in 2 mL sterile M9 buffer and washed once, centrifuging at 800 rpm for 30 seconds to collect the nematodes. Nematodes were infected by placing them on the fungal lawn for 4 hrs at 25°C. Following this exposure, they were washed off the plate and washed four times with 2 mL of sterile M9. The nematodes were then pipetted (~30 per well with two wells per condition for a total of ~60 worms assayed) into six-well plates with 2 mL of the liquid medium (20% BHI broth and 80% M9) containing 1 nM of the peptide. A DMSO-untreated control was used with each experiment. Plates were incubated at 25°C, and worm death was scored daily. Kaplan–Meier survival curves were generated and analyzed, as described in the quantification and statistical analysis section.

Another assay deals with C. albicans biofilm. Briefly: C. albicans biofilm assay in artificial saliva medium (crystal violet). The assay is classed as cell-based, Candida albicans. The settings on record: 10 nM peptide.

Where a SMILES comes first, the peptide text is derived from it. Bridges are numbered along the chain shown (N, C = ends). [ ]: non-standard residue; d: D form. R8 = C=CCCCCCC[C@@](C)(N)C(=O)O; S5 = C=CCCC[C@](C)(N)C(=O)O

Protocol for C. albicans biofilm: Briefly, C. albicans strains were grown in YPD broth for 18 hrs at 30°C with agitation and then sub-cultured for 4 hrs in the same conditions. Cells were then collected by centrifugation at 16,000 x g for 30 s, washed twice in PBS, and adjusted to a concentration of 5 × 10^6 cells/mL (measured with Countess II, Life Technologies) in PBS treated with the 10 nM peptide. The cell suspension was incubated for 1 hr at 30°C with agitation at 200 rpm. Then, 100 µL of the cell suspension was added to wells of a 96-well tissue culture-treated polystyrene plate (Falcon). The PBS and unadhered cells were removed and then replaced with 200 µL of the artificial saliva medium ([15], [60]) containing the 10 nM peptide. The plate was then incubated at 37°C for 48 h.
After incubation, the medium was gently removed along with any planktonic cells. The biofilm was then stained for 20 min with 50 µL of 0.08% crystal violet solution (Sigma). The crystal violet stain was then aspirated, and the wells were washed four times with sterile water. Biofilms were de-stained with 200 µL of 200 proof ethanol for 20 min, and 100 µL of the ethanol solution was transferred to a new well for analysis.

Turning to `CC(C)C[C@@H]1NC(=O)[C@H](C)NC(=O)[C@H](CC(C)C)NC(=O)[C@H](CCC(N)=O)NC(=O)CNC(=O)[C@@](C)(NC(=O)[C@@H](N)C(C)C)CCC/C=C\CCCCCC[C@](C)(C(=O)N[C@H](C(=O)N[C@@H](CCC(N)=O)C(=O)N[C@@H](CS)C(N)=O)C(C)C)NC(=O)[C@H](Cc2c[nH]c3ccccc23)NC1=O` [12aa (i+7 staple)] (H-V[S5]GQLALW[R8]VQC-NH2; staple (Z) 2-9), the “Protection of C. elegans from C. albicans infection relative to parent peptide” value in the assay on C. albicans (survival curves, Mantel–Cox log rank) is listed as “remained as effective as the original”. The “Median survival” value was determined as 12 days with C. albicans (trial 1) and 11.5 days with C. albicans (trial 2). Besides, in the assay on C. albicans biofilm, the “Antifungal activity in biofilm assay” value is listed as “fully active”.

The record behind these values is paper PMC11077972, “Optimization of the antifungal properties of the bacterial peptide EntV by variant analysis” (mBio, 2024).
